Reference: patent publication US8673856B2 (Anygen Co., Ltd., priority 2006, dated 2014)

System: Sprague-Dawley male rats
Settings: rat, in vivo

## CSCC[C@@H]1NC(=O)[C@H](CC(C)C)NC(=O)[C@H](CCCNC(=N)N)NC(=O)[C@H](CO)NC(=O)[C@@H]2CSSC[C@@H]3NC(=O)[C@H](CO)NC(=O)CNC(=O)[C@H]([C@@H](C)O)NC(=O)[C@H](CSSC[C@H](N)C(=O)N[C@@H](CCCCN)C(=O)NCC(=O)N[C@@H](CCCCN)C(=O)NCC(=O)N[C@@H](C)C(=O)N[C@@H](CCCCN)C(=O)N2)NC(=O)[C@H](CSSC[C@@H](C(N)=O)NC(=O)[C@H](CCCCN)NC(=O)CNC(=O)[C@H](CO)NC(=O)[C@H](CCCNC(=N)N)NC3=O)NC(=O)[C@H](CC(=O)O)NC(=O)[C@H](Cc2ccc(O)cc2)NC1=O [MVIIA, CKGKGAKCSRLMYDCCTGSCRSGKC-NH2]
  50% withdrawal threshold, mechanical stimulus: increase in 50% withdrawal threshold

## CC[C@H](C)[C@@H]1NC(=O)[C@H](CCCNC(=N)N)NC(=O)[C@H](CO)NC(=O)[C@@H]2CSSC[C@@H]3NC(=O)[C@H](CO)NC(=O)CNC(=O)[C@H]([C@@H](C)O)NC(=O)[C@H](CSSC[C@H](N)C(=O)N[C@@H](CCCCN)C(=O)NCC(=O)N[C@@H]([C@@H](C)O)C(=O)NCC(=O)N[C@@H](CCCCN)C(=O)N[C@@H](CO)C(=O)N2)NC(=O)[C@H](CSSC[C@@H](C(N)=O)NC(=O)[C@H](CCCCN)NC(=O)CNC(=O)[C@H](CO)NC(=O)[C@H](CCCNC(=N)N)NC3=O)NC(=O)[C@H](CC(N)=O)NC(=O)[C@H](Cc2ccc(O)cc2)NC(=O)[C@H](C)NC1=O [FVIA, CKGTGKSCSRIAYNCCTGSCRSGKC-NH2]
  50% withdrawal threshold, mechanical stimulus: increase in 50% withdrawal threshold
